Results reported in patent US20140349943A1, “TOPICAL FORMULATIONS OF CHEMERIN C15 PEPTIDES FOR THE TREATMENT OF DERMATOLOGICAL CONDITIONS” (priority 2011, published 2014).
Peptide text beside a SMILES is read from it.

Columns and labels:
[1] = system: IFNγ/LPS stimulated human macrophages; experiment: Cytokine secretion by IFNγ/LPS stimulated human macrophages (Luminex); type: cell-based
From the text: In this example, the ability of human chemerin C15 to inhibit secretion of cytokines from activated human macrophages was examined. For this experiment, the activity of the human chemerin C15 peptide […] (SEQ ID NO: 1) was compared to that of the human chemerin C17 peptide […] (SEQ ID NO: 25). The C15 and C17 peptides were synthesized by solid phase synthesis using BOP coupling of FMOC protected amino acids with final cleavage from the resin with TFA. Peptides were purified by reverse phase C18 chromatography using a water/acetonitrile gradient.
Human macrophages were derived from human CD14+ monocytes obtained from 3 donors. On Day 1, the isolated monocytes were thawed and seeded in triplicate for each group in 1 ml RPMI 1640 GlutaMAX™ media (supplemented with 10% FBS, 100 U/ml penicillin, 100 μg/ml streptomycin, 0.05 μM mercaptoethanol, 1% NEAA and 1% sodium pyruvate) per well of a 24 well cell culture dish at a cell concentration of 5×10^5 cells/ml. M-CSF was added to each well to give a final concentration of 25 ng/ml. Cells were grown for 7 days at 37° C. with 5% CO2 to differentiate the cells into macrophages. Media and M-CSF were replaced after 4 days.
Following differentiation, the media containing M-CSF was removed. The cells were washed and vehicle control, dexamethasone, C15 or C17 were added to the appropriate wells. The test peptides were dissolved in 50% DMSO/water prior to addition. C-15 (MW 1669; 16.7 mg/ml) was added to a final concentration of […] and C17 (MW 1904; 19.0 mg/ml) was added to a final concentration of 1 μM. Dexamethasone was added to a final concentration of 1 μM. Following addition to the wells, the plates were incubated at 37° C. with 5% CO2 for 1 hour. An equal volume of complete media was added to the non-treated wells. Control or test treatments were maintained at the correct concentration throughout the assay.
IFNγ (final concentration 20 ng/ml) was then added to the appropriate wells. Following IFNγ addition, the plates were incubated at 37° C. with 5% CO2 for 4 hours. The concentration of vehicle control, test treatments or dexamethasone was maintained during IFNγ stimulation. LPS (final concentration 10 ng/ml) was then added to the appropriate wells. Following LPS addition, the plates were incubated at 37° C. with 5% CO2 for 15 hours. After 6 hours, ˜60 μl of culture supernatant was removed from all wells and stored at −80° C. for analysis. The concentration of vehicle control, test treatments or dexamethasone was maintained during LPS stimulation.
At 15 hours post LPS stimulation, the remaining cell culture supernatant was harvested and stored at −80° C. until assayed. The concentration of vehicle control, test treatments or dexamethasone was maintained until culture termination.
Cell culture supernatants taken at 6 hours and 15 hours post LPS addition were assayed for the production of RANTES, TNFα, IL-1β, IL-6, IL-10, IL-12p40 (subunit common to IL-12 and IL-23) and IL-15 (negative control) using Luminex® technology (Procarta human cytokine kit; Panomics) following the manufacturer's instructions.
In this experiment, the importance of the FYFP motif (SEQ ID NO: 2) in the human chemerin C15 peptide on anti-inflammatory activity was examined. The ability of the human chemerin C15 peptide […] (SEQ ID NO: 1) was compared to that of a substituted chemerin C15 peptide having the amino acid sequence […] (SEQ ID NO: 27), where the second phenylalanine in the peptide is modified to alanine. The experiment was performed as described in Example 1. 0.1 pM 0.5 pM and 1 pM concentrations of the C15 and C15 mutant peptides were tested. Cytokine expression was determined as described in Example 1.

[2] = system: IFNγ/LPS stimulated human macrophages; experiment: as above; type: cell-based; settings: 16 hours post-stimulation
mice = experiment: Contact hypersensitivity assay; type: in vivo, mouse; settings: TNCB hapten; ear thickness; expected
Experimental: In this example, the therapeutic activity of a human chemerin C15 peptide is tested in a contact hypersensitivity assay, which is an in vivo assay of cell-mediated immune function and a model for human allergic contact dermatitis. In this assay, epidermal cells are exposed to exogenous haptens which results in a delayed-type hypersensitive reaction that can be measured and quantified. The Langerhans cell, which is an Ia^+, bone marrow-derived, epidermal cell, initiates sensitization to haptens by presenting antigens to CD4-bearing T lymphocytes, which, in turn, secrete lymphokines and recruit other cells to the site of the reaction.
Contact hypersensitivity consists of the afferent or initial sensitizing phase, and the efferent or elicitation phase. During the efferent phase, when epidermal cells encounter a particular antigen to which they have previously been exposed, localized swelling occurs (in rodents) and in humans results in eczema of the skin.
In an exemplary protocol, mice are shaved and the skin of their abdomens exposed to a hapten. After 6 days (the afferent phase), the baseline ear thickness is measured prior to initiation of the efferent phase. Finally, the ear is treated epicutaneously with the hapten solution and ear thickness is measured at approximately 24 hr. […]

[3] = Stability of C15 in homogenates of frozen and fresh human skin; type: in vitro ADME
Experimental: An initial study was performed comparing stability of human C15 versus Mouse C15. Homogenates of frozen and fresh human skin were prepared to evaluate the degradation of C15 in skin. Frozen or fresh human skin were separately minced and homogenized in 3 ml water and the supernatant isolated. Supernatant was mixed with solutions of mouse or human C15 to yield a 0.5 mg/ml C15 solution. Each solution was incubated at 37° C. and samples were taken at 0, 1, 2 and 24 hours for analysis of C15 (FIG. 3).

[4] = Example 3, 0.1 pM 0.5 pM and 1 pM tested, FIG. 3
[5] = after 24 hours, 37° C., 0.5 mg/ml

SMILES | inhibition of cytokine production ([1]; 1 μM) | inhibition of human macrophage secretion of IL-1β ([2]; 1 pM) | inhibition of human macrophage secretion of RANTES ([2]; 1 pM) | inhibition of human macrophage secretion of IL-12p40 [2] | allergic response (contact hypersensitivity) (mice) | inhibition of newly synthesized RANTES (difference between the 6 and 15 hour time points) ([1]; 1 pM) | decrease in IL-10 ([1]; C15 peptide treatment) | percent inhibition of RANTES expression [1, 4] | percent inhibition of TNFα expression [1, 4] | inhibition of cytokine production/secretion in vitro ([1]; within 15 hours) | C15 degradation in homogenate from fresh skin [3, 5] | C15 degradation in homogenate from frozen skin [3, 5] | relative stability in skin homogenate ([3]; human vs mouse C15)
C[C@H](N)C(=O)NCC(=O)N[C@@H](CCC(=O)O)C(=O)N[C@@H](CC(=O)O)C(=O)N1CCC[C@H]1C(=O)N[C@@H](Cc1c[nH]cn1)C(=O)N[C@@H](CO)C(=O)N[C@@H](Cc1ccccc1)C(=O)N[C@@H](Cc1ccc(O)cc1)C(=O)N[C@@H](Cc1ccccc1)C(=O)N1CCC[C@H]1C(=O)NCC(=O)N[C@@H](CCC(N)=O)C(=O)N[C@@H](Cc1ccccc1)C(=O)N[C@@H](C)C(=O)N[C@@H](Cc1ccccc1)C(=O)N[C@@H](CO)C(=O)O [C17 (human)] (H-AGEDPHSFYFPGQFAFS-OH; N-terminus and C-terminus assumed) | did not exhibit any significant inhibition | – | – | – | – | – | – | – | – | – | – | – | –
C[C@H](N)C(=O)NCC(=O)N[C@@H](CCC(=O)O)C(=O)N[C@@H](CC(=O)O)C(=O)N1CCC[C@H]1C(=O)N[C@@H](Cc1c[nH]cn1)C(=O)N[C@@H](CO)C(=O)N[C@@H](Cc1ccccc1)C(=O)N[C@@H](Cc1ccc(O)cc1)C(=O)N[C@@H](Cc1ccccc1)C(=O)N1CCC[C@H]1C(=O)NCC(=O)N[C@@H](CCC(N)=O)C(=O)N[C@@H](Cc1ccccc1)C(=O)N[C@@H](C)C(=O)O [C15 (human)] (H-AGEDPHSFYFPGQFA-OH; N-terminus and C-terminus assumed) | – | approximately 45% | ~65% | approximately 55% | prevention, suppression and/or treatment of the allergic response | approximately 90% | ~25% | 47% | 61% | 40-60% | 98% | 25% | more stable than mouse C15
